Assay results: PubChem BioAssay AID1053207 (Broad Institute, 2014)
Activity calls are given as the source filed them. The rule behind the calls is not given here.

Columns and labels:
[1] = tested on: Vaccinia-infected cells, mCherry/Venus stage reporter fluorescence; assay: Vaccinia stage specific inhibitors, mCherry reporter channel, infected cells, confirmatory dose response (AID 1053207)
[2] = as above; conditions: Vaccinia-infected cells, mCherry/Venus stage reporter fluorescence; for max activity: measured here: Venus reporter max activity
[3] = measured here: mCherry reporter channel

Structure (SMILES) | AC50 [1] | AC50 [1, 3] | max activity ([2]; at 1.2 µM) | max activity ([2]; at 2.6 µM) | AC50 ([1]; measured here: Venus reporter channel) | activity change, negative = inhibition ([2]; at 19.5 µM (top of the series)) | max activity ([2]; at 10 µM)
Cc1ccc(-c2ccc(CN(C)C[C@@H]3Oc4cc(C#C[C@@H](C)O)ccc4S(=O)(=O)N([C@@H](C)CO)C[C@@H]3C)cc2)cc1 | 1250 nM | 1250 nM | 122% | – | – | – | –
C[C@@H](O)C#Cc1ccc2c(c1)O[C@@H](CN(C)Cc1ccc(-c3ccccc3)cc1)[C@@H](C)CN([C@@H](C)CO)S2(=O)=O | 2350 nM | 2350 nM | – | 115% | – | – | –
Cc1cccc(-c2ccc(CN(C)C[C@@H]3Oc4cc(C#C[C@@H](C)O)ccc4S(=O)(=O)N([C@@H](C)CO)C[C@@H]3C)cc2)c1 | 1660 nM | 1660 nM | – | 140% | – | – | –
C[C@@H](O)C#Cc1ccc2c(c1)O[C@@H](CN(C)Cc1ccc(-c3ccccc3Cl)cc1)[C@@H](C)CN([C@@H](C)CO)S2(=O)=O | 1190 nM | 1190 nM | – | 145% | – | – | –
C[C@@H](O)C#Cc1ccc2c(c1)O[C@@H](CN(C)S(=O)(=O)c1ccc(-c3ccccc3)cc1)[C@@H](C)CN([C@@H](C)CO)S2(=O)=O | – | > 39000 nM | – | – | > 39000 nM | -18.5% (inactive) | -14.6%
Cc1ccccc1-c1ccc(CN(C)C[C@@H]2Oc3cc(C#C[C@@H](C)O)ccc3S(=O)(=O)N([C@@H](C)CO)C[C@@H]2C)cc1 | 1230 nM | 1230 nM | – | 157% | – | – | –
